Test results taken from ChEMBL document CHEMBL5620428, “Discovery of tetrahydroisoquinolineindole derivatives as first dual PRMT5 inhibitors/hnRNP E1 upregulators: Design, synthesis and biological evaluation” (Eur J Med Chem, 2023).
Activity calls are given as the source filed them. The rule behind the calls is not given here.

Columns and labels:
[1] = biological target: Protein arginine N-methyltransferase 5 (Homo sapiens, UniProt O14744); experiment: Inhibition of PRMT5 (unknown origin)
[2] = test system: A549; experiment: Antiproliferative activity against human A549 cells assessed as reduction in cell viability at 25 uM incubated for 24 hrs by SRB assay; format: functional, cell-based
[3] = test system: A549; experiment: Antiproliferative activity against human A549 cells assessed as inhibition of cell growth incubated for 24 hrs by SRB assay; format: functional, cell-based; details: A549, 24 h
[4] = test system: MCF7; experiment: Antiproliferative activity against human MCF7 cells assessed as inhibition of cell growth incubated for 24 hrs by SRB assay; format: functional, cell-based; details: MCF7, 24 h
[5] = test system: MDA-MB-231; experiment: Antiproliferative activity against human MDA-MB-231 cells assessed as inhibition of cell growth incubated for 24 hrs by SRB assay; format: functional, cell-based; details: MDA-MB-231, 24 h
[6] = test system: HepG2; experiment: Antiproliferative activity against human HepG2 cells assessed as inhibition of cell growth incubated for 24 hrs by SRB assay; format: functional, cell-based; details: HepG2, 24 h
[7] = Antiproliferative activity against human L02 cells assessed as inhibition of cell growth incubated for 24 hrs by SRB assay; format: toxicity, cell-based
[8] = biological target: Protein arginine N-methyltransferase 1 (Homo sapiens, UniProt Q99873); experiment: Inhibition of PRMT1 (unknown origin)
Chain of Protein arginine N-methyltransferase 1 (Q99873 whole entry): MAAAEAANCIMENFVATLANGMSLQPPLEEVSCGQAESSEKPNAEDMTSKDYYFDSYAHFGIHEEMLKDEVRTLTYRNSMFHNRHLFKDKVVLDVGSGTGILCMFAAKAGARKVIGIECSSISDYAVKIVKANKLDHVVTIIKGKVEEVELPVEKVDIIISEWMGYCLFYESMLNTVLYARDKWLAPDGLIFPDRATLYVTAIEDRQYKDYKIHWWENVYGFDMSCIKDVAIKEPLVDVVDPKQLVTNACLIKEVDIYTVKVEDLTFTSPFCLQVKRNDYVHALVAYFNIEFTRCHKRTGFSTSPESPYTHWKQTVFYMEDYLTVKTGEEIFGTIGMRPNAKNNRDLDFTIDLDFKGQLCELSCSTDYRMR

[9] = biological target: T1, Histone-arginine methyltransferase CARM1 (Homo sapiens, UniProt Q86X55); experiment: Inhibition of PRMT4 (unknown origin)
T1 sequence (Q86X55 whole entry): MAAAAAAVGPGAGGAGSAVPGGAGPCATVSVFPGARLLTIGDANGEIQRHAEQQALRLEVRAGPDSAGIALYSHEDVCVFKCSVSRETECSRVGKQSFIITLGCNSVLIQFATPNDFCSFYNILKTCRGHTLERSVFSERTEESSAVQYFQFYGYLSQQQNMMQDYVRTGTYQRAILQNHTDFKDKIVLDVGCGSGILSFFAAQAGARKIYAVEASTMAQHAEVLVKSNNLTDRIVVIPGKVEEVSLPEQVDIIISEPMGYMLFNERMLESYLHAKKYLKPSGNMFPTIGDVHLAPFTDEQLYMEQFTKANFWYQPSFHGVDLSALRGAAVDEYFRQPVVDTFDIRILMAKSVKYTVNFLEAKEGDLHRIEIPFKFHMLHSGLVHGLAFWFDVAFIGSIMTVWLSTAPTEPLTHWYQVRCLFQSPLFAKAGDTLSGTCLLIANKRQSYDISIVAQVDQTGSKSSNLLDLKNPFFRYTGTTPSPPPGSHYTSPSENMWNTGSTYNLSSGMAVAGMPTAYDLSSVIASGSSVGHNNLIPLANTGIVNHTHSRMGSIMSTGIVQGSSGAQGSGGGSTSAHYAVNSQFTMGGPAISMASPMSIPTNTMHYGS

[10] = test system: A549; experiment: Anticancer activity against human A549 cells assessed as decrease in cell number incubated for 24 hrs by SRB assay; format: functional, cell-based; details: dose 12.5-50 µM
[11] = test system: A549; experiment: Induction of apoptosis in human A549 cells assessed as nuclear fragmentation incubated for 24 hrs by Hoechst 33342 staining based analysis; format: functional, cell-based; details: dose 12.5-50 µM
[12] = test system: A549; experiment: Induction of apoptosis in human A549 cells at 2.5 to 50 uM incubated for 24 hrs by Hoechst 33342 staining based analysis; format: functional; details: dose 2.5-50 µM
[13] = test system: A549; experiment: Inhibition of cell migration human A549 cells assessed as decrease in migration distance at 12.5 to 25 uM incubated upto 12 hrs by wound healing assay; format: functional, cell-based; details: dose 12.5-25 µM
[14] = test system: A549; experiment: Upregulation of hnRNP E1 gene expression in human A549 cells at 12.5 to 50 uM incubated for 24 hrs by Western blot analysis; format: functional, cell-based; details: dose 12.5-50 µM
[15] = test system: A549; experiment: Induction of apoptosis in human A549 cells transfected in hnRNP E1 siRNA assessed as reduction in cell number incubated for 24 hrs by Hoechst 33258 staining based analysis; format: functional
[16] = test system: A549; experiment: Inhibition of cell migration human A549 cells transfected with hnRNP E1 siRNA incubated upto 12 hrs by wound healing assay; format: functional, cell-based
[17] = Metabolic stability in human liver microsome assessed as half life measured upto 4 hrs in presence of NADPH by LC-MS/MS analysis; format: ADME; details: liver microsomes
[18] = Metabolic stability in rat liver microsome assessed as half life measured upto 4 hrs in presence of NADPH by LC-MS/MS analysis; format: ADME; details: liver microsomes

Chain of Protein arginine N-methyltransferase 5 (O14744 whole entry): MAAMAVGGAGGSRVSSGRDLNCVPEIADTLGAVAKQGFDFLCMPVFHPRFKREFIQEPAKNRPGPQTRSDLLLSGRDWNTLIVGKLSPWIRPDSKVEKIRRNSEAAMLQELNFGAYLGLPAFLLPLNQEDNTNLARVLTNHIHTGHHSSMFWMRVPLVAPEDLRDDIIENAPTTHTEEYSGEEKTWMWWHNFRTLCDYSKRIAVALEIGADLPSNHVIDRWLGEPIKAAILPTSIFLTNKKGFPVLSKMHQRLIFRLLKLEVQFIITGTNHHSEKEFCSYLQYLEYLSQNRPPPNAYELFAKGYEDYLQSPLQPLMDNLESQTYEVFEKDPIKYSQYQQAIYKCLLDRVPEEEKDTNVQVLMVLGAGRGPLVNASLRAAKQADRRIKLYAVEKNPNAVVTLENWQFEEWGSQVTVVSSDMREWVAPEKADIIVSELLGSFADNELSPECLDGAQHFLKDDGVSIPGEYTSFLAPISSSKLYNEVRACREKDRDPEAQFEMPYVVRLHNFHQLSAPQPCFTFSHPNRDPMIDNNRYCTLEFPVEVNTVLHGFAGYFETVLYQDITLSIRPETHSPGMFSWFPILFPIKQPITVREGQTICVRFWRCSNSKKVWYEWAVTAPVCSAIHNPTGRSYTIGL

SMILES	IC50 [1]	Activity [2]	further results
COc1ccc2c(ccn2C[C@H](O)CN2CCc3ccc(Br)cc3C2)c1	33.2 µM	Active	
O[C@H](CN1CCc2ccccc2C1)Cn1ccc2cc(Cl)ccc21	8.2 µM	Active	
N#Cc1cccc2c1ccn2C[C@H](O)CN1CCc2ccccc2C1	5.01 µM	Active	
Oc1ccc2c(c1)CCN(C[C@@H](O)Cn1ccc3ccc(Br)cc31)C2		Active	IC50 [8]: 10.2 µM; IC50 [9]: > 20 µM; IC50 [3]: 14.2 µM; IC50 [4]: 28.9 µM; IC50 [5]: 21.3 µM; IC50 [6]: 58.1 µM; IC50 at 24 h [7]: > 100 µM; Activity [10]: Dose-Dependent Effect; Activity [11]: Dose-Dependent Effect; Activity [12]: 68%; Activity [13]: Active; Activity [14]: Active; Activity [15]: Active; Activity [16]: inactive; half-life [17]: 21.8 min; half-life [18]: 4.7 min
Cc1ccc2ccn(C[C@H](O)CN3CCc4ccccc4C3)c2c1	6.4 µM	Active	
CC1c2ccccc2CCN1C[C@@H](O)Cn1ccc2ccc(Br)cc21 (stereo partly specified)		Active	
Cc1cc2cc(F)ccc2n1C[C@H](O)CN1CCc2ccccc2C1	22.5 µM	Active	

Second part, led by results:

IC50 [1]	SMILES	Activity [2]	further results
0.38 µM	O[C@H](CN1CCc2ccccc2C1)Cn1ccc2ccc(Br)cc21	Active	IC50 [3]: 29.5 µM; IC50 [4]: 25.2 µM; IC50 [5]: 60.1 µM; IC50 [6]: 16.8 µM; IC50 at 24 h [7]: > 100 µM
3.25 µM	O[C@H](CN1CCc2ccc(Br)cc2C1)Cn1ccc2ccc(Br)cc21	Active	
0.53 µM	O[C@H](CN1CCc2ccccc2C1)Cn1ccc2ccc(Cl)cc21	Active	
4.58 µM	COc1cccc2c1ccn2C[C@H](O)CN1CCc2ccccc2C1	Active	
0.85 µM	O[C@H](CN1CCc2ccccc2C1)Cn1ccc2ccccc21	Active	
2.44 µM	O[C@H](CN1CCc2cc(Br)ccc2C1)Cn1ccc2ccc(Br)cc21	Active	
0.12 µM	COc1ccc2c(ccn2C[C@H](O)CN2CCc3cc(O)ccc3C2)c1	Active	
4.12 µM	N#CCc1cn(C[C@H](O)CN2CCc3ccccc3C2)c2ccccc12	Active	
3.22 µM	Cc1cn(C[C@H](O)CN2CCc3ccccc3C2)c2ccccc12	Active	
